Calls of active or inactive are those of the source.
Columns and labels:
[1] = molecular target: T1, Heat shock factor protein 1 (Mus musculus, UniProt P38532); test: decrease of HSF1-responsive luciferase luminescence – cell-based, NIH3T3, dose retest, confirmation (AID 2382); assay type: functional;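 further: NIH3T3 fibroblasts with HSF1-driven luciferase reporter stressed by proteasome inhibitor MG132; luminescence from HSF1-driven luciferase expression after 8 hours of MG132 stress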
T1 sequence (P38532 whole entry): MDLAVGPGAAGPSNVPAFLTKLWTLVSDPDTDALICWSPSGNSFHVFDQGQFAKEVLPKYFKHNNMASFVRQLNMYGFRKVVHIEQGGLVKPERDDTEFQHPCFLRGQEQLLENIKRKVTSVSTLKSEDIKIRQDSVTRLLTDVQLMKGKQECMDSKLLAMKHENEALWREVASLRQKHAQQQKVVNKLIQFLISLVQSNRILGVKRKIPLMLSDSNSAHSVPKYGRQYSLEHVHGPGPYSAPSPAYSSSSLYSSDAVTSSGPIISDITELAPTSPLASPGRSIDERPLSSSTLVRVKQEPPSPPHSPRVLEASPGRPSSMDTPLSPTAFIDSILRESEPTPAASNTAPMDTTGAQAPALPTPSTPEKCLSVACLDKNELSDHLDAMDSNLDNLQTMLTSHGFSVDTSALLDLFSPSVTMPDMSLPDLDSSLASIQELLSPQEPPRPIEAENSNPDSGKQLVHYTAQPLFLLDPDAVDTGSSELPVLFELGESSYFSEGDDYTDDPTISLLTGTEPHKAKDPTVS

HEK293 [2] = test: HEK293T cell viability loss, resazurin readout – resazurin fluorescence, cytotoxicity control for NF-kB activator project, SAR follow-up (AID 493251); assay type: functional, cell-based; conditions: Homo sapiens
Jurkat = test: SAR Analysis of small molecule inhibitors of T-cell specific antigen receptor-induced NF-kB activation in a Jurkat cell line using a luminescence assay - Set 2. [Related pubchem assays (depositor defined):AID435003, AID435012, AID465]; assay type: functional, cell-based; conditions: Homo sapiens
[3] = molecular target: ATP-dependent molecular chaperone HSP82 (Candida albicans (strain WO-1) (Yeast), UniProt C4YTQ8); test: steroid-induced GRE reporter decrease in yeast – S. cerevisiae, luminescence, Hsp90 inhibitor project, dose response (AID 2400); assay type: functional, cell-based;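 further: beta-galactosidase luminescence from glucocorticoid response element reporter as proxy for Hsp90 function; inhibitor potency where signal loss means Hsp90 inhibition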
Chain of ATP-dependent molecular chaperone HSP82 (C4YTQ8 whole entry): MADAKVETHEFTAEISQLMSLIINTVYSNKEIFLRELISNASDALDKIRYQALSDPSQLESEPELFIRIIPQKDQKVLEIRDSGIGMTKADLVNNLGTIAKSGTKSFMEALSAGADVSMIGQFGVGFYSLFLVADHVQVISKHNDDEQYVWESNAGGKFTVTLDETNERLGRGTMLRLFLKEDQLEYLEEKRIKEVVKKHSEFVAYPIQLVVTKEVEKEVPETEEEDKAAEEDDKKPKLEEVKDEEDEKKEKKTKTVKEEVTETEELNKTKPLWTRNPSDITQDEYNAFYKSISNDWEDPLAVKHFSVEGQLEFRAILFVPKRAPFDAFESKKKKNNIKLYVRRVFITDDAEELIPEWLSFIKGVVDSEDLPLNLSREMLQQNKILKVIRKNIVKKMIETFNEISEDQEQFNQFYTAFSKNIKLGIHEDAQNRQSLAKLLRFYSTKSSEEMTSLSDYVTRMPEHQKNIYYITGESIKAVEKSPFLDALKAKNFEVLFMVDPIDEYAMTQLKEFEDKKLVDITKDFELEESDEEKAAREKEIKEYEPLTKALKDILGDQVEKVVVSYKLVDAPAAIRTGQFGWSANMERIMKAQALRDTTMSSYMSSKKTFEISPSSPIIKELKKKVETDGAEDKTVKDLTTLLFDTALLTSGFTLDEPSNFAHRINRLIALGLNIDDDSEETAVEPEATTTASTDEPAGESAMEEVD

[4] = reduction of Shn3 3'UTR-driven luciferase in osteoblasts – cell-based, Clone20 osteoblasts, firefly luciferase, cherry-picked, dose response (AID 624132); assay type: functional;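 further: firefly luciferase luminescence from reporter carrying the Shn3 3'UTR in osteoblasts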
CHO = CHO cell viability loss, potency – luminescence, cytotoxicity control for TLR9-MyD88 binding inhibitor project, dose response (AID 588339); assay type: functional, cell-based, hamster; conditions: Cricetulus griseus;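 further: CHO cells stably coexpressing TLR9 and MyD88 fusions from primary screen; compound exposure lasted 48 hours before viability readout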
Beta Lactamase = Beta Lactamase (Pseudomonas aeruginosa, UniProt Q932Y6); test: BLA reporter interference, concentration series – BLA reporter cells, FRET fluorescence, artefact control for TLR9-MyD88 binding inhibitor project, dose response (AID 588341); assay type: cell-based;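 further: cell based assay in CHO-K1 cells stably expressing beta-lactamase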
Chain of Beta Lactamase (Q932Y6 whole entry): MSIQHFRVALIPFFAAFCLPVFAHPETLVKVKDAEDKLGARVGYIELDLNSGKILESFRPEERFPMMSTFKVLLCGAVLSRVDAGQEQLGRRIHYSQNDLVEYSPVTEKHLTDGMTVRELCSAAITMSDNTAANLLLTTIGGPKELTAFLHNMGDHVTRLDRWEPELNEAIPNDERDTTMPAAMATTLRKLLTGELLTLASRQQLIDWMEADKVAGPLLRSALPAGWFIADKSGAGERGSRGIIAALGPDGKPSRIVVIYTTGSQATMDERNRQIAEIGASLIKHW

HEK293 [5] = test: Fluorescence-based counterscreen for potentiators or agonists of NPY-Y2: cell-based high-throughput dose response assay to identify inhibitors of cyclic nucleotide gated ion channel (CNGC) activity. In this assay, the parental HEK293 cell line transfected with a cyclic-nucleotide gated ion channel (CNGC)-based cAMP sensor is used to measure inhibition of isoproterenol-induced CNGC activity by test compound.; assay type: functional; conditions: Homo sapiens
[6] = molecular target: Heat shock 70 kDa protein 1A (Homo sapiens, UniProt P0DMV8); test: small molecules displacing fluorescent ligand from Hsp70 – biochemical, fluorescence polarization, primary screen (AID 583)
Chain of Heat shock 70 kDa protein 1A (P0DMV8 whole entry): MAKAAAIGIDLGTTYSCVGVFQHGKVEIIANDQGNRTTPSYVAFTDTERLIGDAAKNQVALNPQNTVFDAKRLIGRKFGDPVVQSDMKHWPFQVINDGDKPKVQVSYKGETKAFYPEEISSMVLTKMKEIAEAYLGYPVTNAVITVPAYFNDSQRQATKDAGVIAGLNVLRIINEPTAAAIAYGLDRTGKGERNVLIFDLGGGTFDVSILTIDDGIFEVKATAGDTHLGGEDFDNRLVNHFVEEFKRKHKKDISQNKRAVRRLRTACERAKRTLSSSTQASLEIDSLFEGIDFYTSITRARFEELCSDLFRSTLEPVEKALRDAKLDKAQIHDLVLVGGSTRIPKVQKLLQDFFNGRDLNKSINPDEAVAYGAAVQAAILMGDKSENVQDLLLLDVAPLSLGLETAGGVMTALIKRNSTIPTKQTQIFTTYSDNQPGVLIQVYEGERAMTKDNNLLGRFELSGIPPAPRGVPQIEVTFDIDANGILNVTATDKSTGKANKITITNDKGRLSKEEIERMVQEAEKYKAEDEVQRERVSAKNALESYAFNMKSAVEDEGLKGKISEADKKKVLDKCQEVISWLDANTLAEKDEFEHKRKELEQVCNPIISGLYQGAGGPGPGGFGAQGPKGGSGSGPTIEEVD

[7] = molecular target: T2, Neuropeptide Y receptor type 2 (Homo sapiens, UniProt P49146); test: Fluorescence-based cell-based high-throughput dose response assay for agonists of NPY-Y2. [Related pubchem assays: 1703 (Screening assay (CNGC inhibitors).), 1359 (Screening assay (NPY-Y2 potentiators or agonists).), 1304 (Screening assay (NPY-Y1 potentiators or agonists).), 1710 (Screening assay (NPY-Y2 agonists).), 1791 (Summary AID.)]; assay type: functional
T2 sequence (P49146 whole entry): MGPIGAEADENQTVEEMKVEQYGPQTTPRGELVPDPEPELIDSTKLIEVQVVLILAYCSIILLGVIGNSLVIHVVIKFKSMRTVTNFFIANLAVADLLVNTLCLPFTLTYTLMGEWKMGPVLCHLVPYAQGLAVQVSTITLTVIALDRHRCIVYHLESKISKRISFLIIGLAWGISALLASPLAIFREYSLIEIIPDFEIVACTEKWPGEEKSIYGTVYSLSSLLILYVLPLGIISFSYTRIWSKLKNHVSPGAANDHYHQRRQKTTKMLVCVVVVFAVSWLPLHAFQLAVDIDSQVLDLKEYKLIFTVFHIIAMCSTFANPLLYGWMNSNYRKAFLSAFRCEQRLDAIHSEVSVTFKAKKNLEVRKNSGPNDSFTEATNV

[8] = molecular target: T3, Small ubiquitin-related modifier 2 (Homo sapiens, UniProt P61956); test: disruption of SUMO2 interaction with SIM peptide – biochemical, fluorescence polarization, uHTS hits, selectivity assay for SUMO1 interaction inhibitor project, dose response (AID 624385); assay type: functional; conditions: read-out: IC50_Mean
T3 sequence (P61956 whole entry): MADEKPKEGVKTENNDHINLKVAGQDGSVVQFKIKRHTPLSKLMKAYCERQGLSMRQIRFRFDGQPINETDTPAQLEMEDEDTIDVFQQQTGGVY

[9] = molecular target: Small ubiquitin-related modifier 1 (Homo sapiens, UniProt P63165); test: SUMO1 protein interaction blockers, potency – biochemical, fluorescence polarization, uHTS hits, dose response (AID 624382); assay type: functional; conditions: read-out: IC50_Mean
Chain of Small ubiquitin-related modifier 1 (P63165 whole entry): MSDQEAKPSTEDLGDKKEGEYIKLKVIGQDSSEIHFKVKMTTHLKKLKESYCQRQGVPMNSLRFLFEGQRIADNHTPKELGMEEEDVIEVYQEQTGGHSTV

[10] = molecular target: T3, Small ubiquitin-related modifier 2; test: SUMO2 binding disruption by SUMO1 hits – biochemical, FRET, human SUMO2, uHTS hits, selectivity assay for SUMO1 interaction inhibitor project, dose response (AID 624384); assay type: functional; conditions: read-out: IC50_Mean
[11] = CellTiter-Glo luminescence survival assay, SW480 colon tumor line, concentration-response curve, half-maximal inhibitory concentration (AID 1117338); assay type: functional
SUMO-activating enzyme = SUMO-activating enzyme (Homo sapiens, UniProt Q9UBT2); test: blockers of UBC9-mediated SUMO conjugation – biochemical, AlphaScreen, SUMOylation inhibitor project, confirmation (AID 2018); assay type: functional
Chain of SUMO-activating enzyme (Q9UBE0 whole entry): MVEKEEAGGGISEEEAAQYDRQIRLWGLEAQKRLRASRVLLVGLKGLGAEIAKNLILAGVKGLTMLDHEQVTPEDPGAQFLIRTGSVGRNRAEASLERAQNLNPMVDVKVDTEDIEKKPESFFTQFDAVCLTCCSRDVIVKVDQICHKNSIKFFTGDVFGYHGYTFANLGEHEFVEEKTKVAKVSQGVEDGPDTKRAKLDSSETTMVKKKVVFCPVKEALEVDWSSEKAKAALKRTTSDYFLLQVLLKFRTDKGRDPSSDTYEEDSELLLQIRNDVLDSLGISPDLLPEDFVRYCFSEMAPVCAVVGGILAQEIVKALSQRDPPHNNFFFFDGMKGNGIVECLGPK
Chain of SUMO-activating enzyme (Q9UBT2 whole entry): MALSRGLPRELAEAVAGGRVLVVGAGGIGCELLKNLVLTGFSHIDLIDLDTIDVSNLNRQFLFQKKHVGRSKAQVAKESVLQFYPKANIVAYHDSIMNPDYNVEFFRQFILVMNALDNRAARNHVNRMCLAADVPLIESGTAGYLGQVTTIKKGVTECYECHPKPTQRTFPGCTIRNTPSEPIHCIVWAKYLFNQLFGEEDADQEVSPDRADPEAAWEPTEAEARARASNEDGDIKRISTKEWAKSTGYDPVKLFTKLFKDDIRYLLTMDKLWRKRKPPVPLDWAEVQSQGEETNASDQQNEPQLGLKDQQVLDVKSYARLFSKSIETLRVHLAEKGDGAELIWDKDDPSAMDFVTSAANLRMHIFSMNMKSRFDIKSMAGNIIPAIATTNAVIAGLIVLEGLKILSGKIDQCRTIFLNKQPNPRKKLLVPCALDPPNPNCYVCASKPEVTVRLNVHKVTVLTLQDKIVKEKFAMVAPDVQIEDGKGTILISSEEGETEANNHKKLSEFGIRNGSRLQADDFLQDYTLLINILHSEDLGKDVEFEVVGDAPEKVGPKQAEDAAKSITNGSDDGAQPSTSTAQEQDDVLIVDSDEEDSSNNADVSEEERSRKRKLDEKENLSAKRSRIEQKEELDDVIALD

[12] = molecular target: T4, Serine/threonine-protein phosphatase (Homo sapiens, UniProt Q9BPW0); test: inhibition of protein phosphatase 5 activity – biochemical, fluorescence, dose response (AID 2395)
T4 sequence (Q9BPW0 whole entry): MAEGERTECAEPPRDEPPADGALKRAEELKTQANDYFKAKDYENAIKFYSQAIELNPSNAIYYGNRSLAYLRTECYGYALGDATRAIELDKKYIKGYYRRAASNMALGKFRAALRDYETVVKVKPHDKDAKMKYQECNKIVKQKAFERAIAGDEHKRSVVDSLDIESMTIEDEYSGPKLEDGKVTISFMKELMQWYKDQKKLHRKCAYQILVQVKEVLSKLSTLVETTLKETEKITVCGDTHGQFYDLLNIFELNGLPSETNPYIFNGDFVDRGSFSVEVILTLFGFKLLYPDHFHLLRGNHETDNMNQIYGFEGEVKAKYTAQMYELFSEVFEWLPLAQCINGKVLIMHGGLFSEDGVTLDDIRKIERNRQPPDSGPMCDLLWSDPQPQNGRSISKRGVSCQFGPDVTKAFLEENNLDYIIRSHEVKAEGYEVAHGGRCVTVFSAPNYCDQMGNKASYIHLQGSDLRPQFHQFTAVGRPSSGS

Caspase-3 = molecular target: T5, Caspase-3 (Homo sapiens, UniProt P42574); assay type: functional;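 further: Dose-response selectivity test against caspase-3 for candidate inhibitors of sentrin-specific proteases (SENPs)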
T5 sequence (P42574 whole entry): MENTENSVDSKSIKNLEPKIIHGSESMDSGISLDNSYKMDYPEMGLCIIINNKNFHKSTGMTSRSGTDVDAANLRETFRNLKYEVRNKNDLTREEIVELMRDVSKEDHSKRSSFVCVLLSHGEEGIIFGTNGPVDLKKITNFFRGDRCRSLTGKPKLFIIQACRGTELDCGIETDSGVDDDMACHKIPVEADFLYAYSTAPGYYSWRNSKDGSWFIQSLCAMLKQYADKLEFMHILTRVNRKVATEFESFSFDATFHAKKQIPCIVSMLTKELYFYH

Question: Which EC50 [1] does the source give for `CCCC(=O)NC(c1ccc(C(C)C)cc1)c1ccc2cccnc2c1O` (configuration not stated) here?
Answer: Its EC50 is 1.63 µM (active).

Question: What about the IC50 (HEK293 [2]) of the same compound?
Answer: The IC50 was 24.8 µM (inactive).

Question: And the IC50 (Jurkat)?
Answer: Its IC50 is 2.58 µM (active).

Question: And the EC50 [3]?
Answer: Its EC50 is > 160 µM (inactive).

Question: And the AC50 [4]?
Answer: The AC50 was 470 nM (active).

Question: Which IC50 (CHO) does the source give for `O=[N+]([O-])c1ccc(Sc2cccc[n+]2[O-])c2nonc12` here?
Answer: The IC50 was 448 nM (active).

Question: And the IC50 (Beta Lactamase)?
Answer: The IC50 was 7.63 µM (active).

Question: Which EC50 (HEK293 [5]) does the source give for `Oc1c(Cl)cc(Cl)c(Cl)c1Cc1c(O)c(Cl)cc(Cl)c1Cl` [HEXACHLOROPHENE] here?
Answer: Its EC50 is > 11.8 µM (not active).

Question: And the IC50 [6]?
Answer: Its IC50 is 19.5 µM (active).

Question: What about the EC50 [7] of the same compound?
Answer: Its EC50 is > 11.8 µM (not active).

Question: What about the IC50 [8] of the same compound?
Answer: Its IC50 is 8.49 µM (active).

Question: What about the IC50 [9] of the same compound?
Answer: The IC50 was 5.63 µM (active).

Question: And the IC50 [10]?
Answer: The IC50 was 15.8 µM (active).

Question: And the IC50 [11]?
Answer: Its IC50 is 3 nM (active).

Question: For `N#Cc1c(N2CCCCC2)nc(N)c2c(N)nc(SCC(=O)O)cc12`, which IC50 (SUMO-activating enzyme) is on record?
Answer: Its IC50 is 860 nM (active).

Question: And the IC50 [12]?
Answer: The IC50 was > 7.45 µM (active).

Question: What about the IC50 (Caspase-3) of the same compound?
Answer: Its IC50 is 33.7 µM (active).
